Tests used:
[1] = target: T1, OpLAMT (Ophiorrhiza pumila, UniProt A0A8F2YIU9); test: HPLC assay, loganin formation; type: biochemical; conditions: 1 mM SAM; pH 7.5; 30 °C
T1 construct: gene LAMT; recombinant from pET-30a in E. coli BL21(DE3), Ni resin purified
T1 sequence (A0A8F2YIU9 1-381): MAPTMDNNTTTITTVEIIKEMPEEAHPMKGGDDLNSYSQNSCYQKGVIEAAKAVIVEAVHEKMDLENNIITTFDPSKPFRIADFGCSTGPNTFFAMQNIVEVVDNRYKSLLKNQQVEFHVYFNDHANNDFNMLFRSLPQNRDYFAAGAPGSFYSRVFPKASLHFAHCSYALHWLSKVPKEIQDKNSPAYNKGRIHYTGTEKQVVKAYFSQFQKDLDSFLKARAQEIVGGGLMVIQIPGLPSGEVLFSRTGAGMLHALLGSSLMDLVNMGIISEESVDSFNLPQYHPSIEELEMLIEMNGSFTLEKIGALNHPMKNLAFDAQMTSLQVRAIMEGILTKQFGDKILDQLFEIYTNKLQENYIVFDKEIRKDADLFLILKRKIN

[2] = target: T2, OpSLS1 (Ophiorrhiza pumila, UniProt A0A8F2YIW0); test: yeast microsome assay, HPLC of secologanin; type: biochemical; conditions: 1 mM NADPH; 30 °C
T2 construct: gene SLS1; expressed from pESC-Leu in yeast WAT11, microsomes
T2 sequence (A0A8F2YIW0 1-522): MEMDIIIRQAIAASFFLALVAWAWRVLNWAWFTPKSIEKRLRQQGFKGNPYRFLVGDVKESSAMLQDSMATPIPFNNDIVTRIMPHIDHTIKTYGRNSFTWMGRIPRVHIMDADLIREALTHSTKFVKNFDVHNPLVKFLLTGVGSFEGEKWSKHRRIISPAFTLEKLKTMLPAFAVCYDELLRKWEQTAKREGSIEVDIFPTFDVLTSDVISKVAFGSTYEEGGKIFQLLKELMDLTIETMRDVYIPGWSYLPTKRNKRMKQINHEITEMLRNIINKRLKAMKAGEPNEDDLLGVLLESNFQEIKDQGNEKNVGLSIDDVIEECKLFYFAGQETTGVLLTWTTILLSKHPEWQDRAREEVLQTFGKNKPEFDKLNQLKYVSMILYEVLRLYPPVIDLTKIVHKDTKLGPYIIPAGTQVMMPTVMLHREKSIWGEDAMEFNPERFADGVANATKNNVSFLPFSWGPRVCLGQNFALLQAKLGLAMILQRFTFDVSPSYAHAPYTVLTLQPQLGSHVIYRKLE

[3] = target: T3, OpSLS3 (Ophiorrhiza pumila, UniProt A0A8F3BRG6); test: yeast microsome assay, HPLC of secologanin; type: biochemical; conditions: 1 mM NADPH; 30 °C
T3 construct: gene SLS3; expressed from pESC-Leu in yeast WAT11, microsomes
T3 sequence (A0A8F3BRG6 1-521): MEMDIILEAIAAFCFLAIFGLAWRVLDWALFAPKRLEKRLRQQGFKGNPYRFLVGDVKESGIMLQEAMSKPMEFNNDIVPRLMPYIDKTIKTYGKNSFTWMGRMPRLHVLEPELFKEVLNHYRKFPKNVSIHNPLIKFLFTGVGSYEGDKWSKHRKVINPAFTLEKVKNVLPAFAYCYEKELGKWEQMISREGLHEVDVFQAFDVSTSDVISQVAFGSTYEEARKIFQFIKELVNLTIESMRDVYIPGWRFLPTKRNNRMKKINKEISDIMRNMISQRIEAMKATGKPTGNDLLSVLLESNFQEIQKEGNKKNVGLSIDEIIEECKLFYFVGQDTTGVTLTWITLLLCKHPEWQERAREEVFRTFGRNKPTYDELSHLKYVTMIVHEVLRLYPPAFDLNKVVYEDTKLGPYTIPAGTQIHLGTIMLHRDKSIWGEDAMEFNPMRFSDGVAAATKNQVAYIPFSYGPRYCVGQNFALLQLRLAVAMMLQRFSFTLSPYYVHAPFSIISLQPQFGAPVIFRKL

[4] = target: T4, OpSLS4 (Ophiorrhiza pumila, UniProt A0A8F3BRW9); test: yeast microsome assay, HPLC of secologanin; type: biochemical; conditions: 1 mM NADPH; 30 °C
T4 construct: gene SLS4; expressed from pESC-Leu in yeast WAT11, microsomes

[5] = target: T5, OpSLS5 (Ophiorrhiza pumila, UniProt A0A8F3BPP9); test: yeast microsome assay, HPLC of secologanin; type: biochemical; conditions: 1 mM NADPH; 30 °C
T5 construct: gene SLS5; expressed from pESC-Leu in yeast WAT11, microsomes
T5 sequence (A0A8F3BPP9 1-521): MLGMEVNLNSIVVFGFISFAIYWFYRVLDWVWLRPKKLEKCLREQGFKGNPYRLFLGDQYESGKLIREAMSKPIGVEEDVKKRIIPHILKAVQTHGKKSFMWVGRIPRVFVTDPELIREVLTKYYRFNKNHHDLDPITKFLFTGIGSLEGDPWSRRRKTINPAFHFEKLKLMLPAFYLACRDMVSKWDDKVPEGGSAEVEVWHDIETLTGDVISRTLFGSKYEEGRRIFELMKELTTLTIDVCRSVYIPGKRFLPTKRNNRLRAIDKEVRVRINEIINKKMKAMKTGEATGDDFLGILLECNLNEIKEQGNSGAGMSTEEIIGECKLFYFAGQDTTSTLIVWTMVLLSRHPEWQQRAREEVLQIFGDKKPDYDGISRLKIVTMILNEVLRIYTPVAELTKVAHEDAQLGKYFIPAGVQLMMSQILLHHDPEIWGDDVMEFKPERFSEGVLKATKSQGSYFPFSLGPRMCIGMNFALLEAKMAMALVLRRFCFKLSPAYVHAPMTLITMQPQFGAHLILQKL

[6] = target: T6, OpSLS6 (Ophiorrhiza pumila, UniProt A0A8F3BQ54); test: yeast microsome assay, HPLC of secologanin; type: biochemical; conditions: 1 mM NADPH; 30 °C
T6 construct: gene SLS6; expressed from pESC-Leu in yeast WAT11, microsomes
T6 sequence (A0A8F3BQ54 1-516): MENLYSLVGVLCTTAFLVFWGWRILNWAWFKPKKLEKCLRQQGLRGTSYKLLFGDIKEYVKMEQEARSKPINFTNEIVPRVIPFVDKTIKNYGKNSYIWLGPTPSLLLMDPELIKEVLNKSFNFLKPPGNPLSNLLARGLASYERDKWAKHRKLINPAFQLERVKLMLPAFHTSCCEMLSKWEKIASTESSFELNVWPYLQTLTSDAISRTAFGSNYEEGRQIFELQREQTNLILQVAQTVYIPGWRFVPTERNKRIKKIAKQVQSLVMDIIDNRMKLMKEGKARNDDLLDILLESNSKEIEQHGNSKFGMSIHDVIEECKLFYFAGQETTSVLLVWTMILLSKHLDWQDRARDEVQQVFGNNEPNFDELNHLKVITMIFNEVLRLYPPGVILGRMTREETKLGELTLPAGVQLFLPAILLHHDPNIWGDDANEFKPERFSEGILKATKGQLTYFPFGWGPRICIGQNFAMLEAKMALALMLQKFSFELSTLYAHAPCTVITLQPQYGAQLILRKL

[7] = target: T1, OpLAMT; test: assay of secologanin formation, printed as microsome assay with recombinant OpLAMT; type: biochemical; conditions: SAM
[8] = target: T7, CaSTR2 (Camptotheca acuminata, UniProt A0A8F2YJ04); test: LC-MS of strictosidinic acid formation; type: biochemical; conditions: tryptamine co-substrate
T7 construct: gene STR2; recombinant from pET30a in E. coli BL21(DE3), Ni resin purified
T7 sequence (A0A8F2YJ04 32-329): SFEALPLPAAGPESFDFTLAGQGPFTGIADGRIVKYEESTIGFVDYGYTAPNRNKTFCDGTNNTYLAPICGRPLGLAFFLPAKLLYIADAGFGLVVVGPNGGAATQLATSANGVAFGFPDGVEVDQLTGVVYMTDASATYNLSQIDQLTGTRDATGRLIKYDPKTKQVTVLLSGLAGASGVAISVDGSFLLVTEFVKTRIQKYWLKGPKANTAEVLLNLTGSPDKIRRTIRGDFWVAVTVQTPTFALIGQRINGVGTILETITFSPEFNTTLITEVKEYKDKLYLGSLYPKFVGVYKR

[9] = target: T7, CaSTR2; test: LC-MS of strictosidine formation; type: biochemical; conditions: tryptamine co-substrate
[10] = target: T8, CaSTR1 (Camptotheca acuminata, UniProt A0A8F2YIY3); test: LC-MS of strictosidine formation; type: biochemical; conditions: tryptamine co-substrate
T8 construct: gene STR1; recombinant from pET30a in E. coli BL21(DE3), Ni resin purified
T8 sequence (A0A8F2YIY3 73-370): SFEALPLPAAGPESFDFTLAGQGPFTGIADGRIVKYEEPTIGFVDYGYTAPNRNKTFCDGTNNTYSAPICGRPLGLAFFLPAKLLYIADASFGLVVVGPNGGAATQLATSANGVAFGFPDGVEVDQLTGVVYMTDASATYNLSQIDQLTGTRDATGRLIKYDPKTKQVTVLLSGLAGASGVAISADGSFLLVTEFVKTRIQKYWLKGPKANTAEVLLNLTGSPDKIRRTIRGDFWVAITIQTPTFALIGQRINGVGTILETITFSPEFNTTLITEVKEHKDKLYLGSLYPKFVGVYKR

[11] = target: T9, CaSTR3 (Camptotheca acuminata, UniProt A0A8F2YIV8); test: LC-MS of strictosidine formation; type: biochemical; conditions: tryptamine co-substrate
T9 construct: gene STR3; recombinant from pET30a in E. coli BL21(DE3), Ni resin purified
T9 sequence (A0A8F2YIV8 31-330): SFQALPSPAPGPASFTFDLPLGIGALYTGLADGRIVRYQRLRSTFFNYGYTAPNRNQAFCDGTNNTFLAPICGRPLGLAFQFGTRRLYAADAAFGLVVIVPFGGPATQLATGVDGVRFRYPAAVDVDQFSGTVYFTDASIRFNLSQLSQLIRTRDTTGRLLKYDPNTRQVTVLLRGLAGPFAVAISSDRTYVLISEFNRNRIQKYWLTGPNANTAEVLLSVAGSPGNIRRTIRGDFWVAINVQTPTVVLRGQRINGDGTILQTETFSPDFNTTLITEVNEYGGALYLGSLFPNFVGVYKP

[12] = substrate: C=C[C@H]1[C@H](O[C@@H]2O[C@H](CO)[C@@H](O)[C@H](O)[C@H]2O)OC=C(C(=O)OC)[C@H]1CC=O; test: LC-MS of strictosidine formation; type: biochemical, Ophiorrhiza pumila; conditions: tryptamine co-substrate
Source text: LC-MS of strictosidine formation on OpSTR | we furtherly characterized the kinetic parameters of OpSTR using LCMS

T4 sequence (A0A8F3BRW9 1-517): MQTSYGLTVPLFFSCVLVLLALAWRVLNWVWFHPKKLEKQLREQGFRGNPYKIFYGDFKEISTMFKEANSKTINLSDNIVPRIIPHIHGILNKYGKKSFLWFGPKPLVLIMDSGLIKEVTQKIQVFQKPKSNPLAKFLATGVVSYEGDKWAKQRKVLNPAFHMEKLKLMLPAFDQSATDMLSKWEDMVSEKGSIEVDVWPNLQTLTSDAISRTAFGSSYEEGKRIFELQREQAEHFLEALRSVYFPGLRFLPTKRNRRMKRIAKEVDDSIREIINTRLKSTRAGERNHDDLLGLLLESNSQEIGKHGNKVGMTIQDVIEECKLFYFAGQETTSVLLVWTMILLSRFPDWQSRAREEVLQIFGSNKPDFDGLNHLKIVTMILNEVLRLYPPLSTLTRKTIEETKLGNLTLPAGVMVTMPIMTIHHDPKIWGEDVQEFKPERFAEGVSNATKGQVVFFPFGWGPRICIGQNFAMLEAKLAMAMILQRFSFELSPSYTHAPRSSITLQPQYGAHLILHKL

## C[C@@H]1[C@H]2[C@H](O[C@@H]3O[C@H](CO)[C@@H](O)[C@H](O)[C@H]3O)OC=C(C(=O)O)[C@H]2C[C@@H]1O [loganic acid]
[1]
  HPLC assay, loganin formation: The purified recombinant protein converted loganic acid and S-adenosyl methionine (SAM) into loganin

## COC(=O)C1=CO[C@@H](O[C@@H]2O[C@H](CO)[C@@H](O)[C@H](O)[C@H]2O)[C@@H]2[C@@H](C)[C@@H](O)C[C@H]12 [loganin]
[2]
  yeast microsome assay, HPLC of secologanin: five OpSLS proteins (OpSLS1, OpSLS3, OpSLS4, OpSLS5, OpSLS6) exhibited secologanin synthase activity
[3]
  yeast microsome assay, HPLC of secologanin: five OpSLS proteins (OpSLS1, OpSLS3, OpSLS4, OpSLS5, OpSLS6) exhibited secologanin synthase activity
[4]
  yeast microsome assay, HPLC of secologanin: five OpSLS proteins (OpSLS1, OpSLS3, OpSLS4, OpSLS5, OpSLS6) exhibited secologanin synthase activity
[5]
  yeast microsome assay, HPLC of secologanin: five OpSLS proteins (OpSLS1, OpSLS3, OpSLS4, OpSLS5, OpSLS6) exhibited secologanin synthase activity
[6]
  yeast microsome assay, HPLC of secologanin: five OpSLS proteins (OpSLS1, OpSLS3, OpSLS4, OpSLS5, OpSLS6) exhibited secologanin synthase activity

## C=C[C@@H]1C(CC=O)C(C(=O)O)=CO[C@H]1O[C@@H]1O[C@H](CO)[C@@H](O)[C@H](O)[C@H]1O (stereo partly drawn) [secologanic acid]
[7]
  assay of secologanin formation, printed as microsome assay with recombinant OpLA: a microsome assay with secologanic acid as a substrate for recombinant OpLAMT revealed methylation
[8]
  LC-MS of strictosidinic acid formation: OpSTR and CaSTR2 used both secologanin and secologanic acid activity as their substrates

## C=C[C@H]1[C@H](O[C@@H]2O[C@H](CO)[C@@H](O)[C@H](O)[C@H]2O)OC=C(C(=O)OC)[C@H]1CC=O [secologanin]
[9]
  LC-MS of strictosidine formation: OpSTR and CaSTR2 used both secologanin and secologanic acid activity as their substrates
[10]
  LC-MS of strictosidine formation: NnSTR, CaSTR1, and CaSTR3 displayed substrate specificity towards secologanin only
[11]
  LC-MS of strictosidine formation: NnSTR, CaSTR1, and CaSTR3 displayed substrate specificity towards secologanin only

B1: OpSTR (Ophiorrhiza pumila) (protein)
chain: SPEFFEFIEAPSYGPNAYAFDSDGELYASVEDGRIIKYDKPSNKFLTHAVASPIWNNALCENNTNQDLKPLCGRVYDFGFHYETQRLYIADCYFGLGFVGPDGGHAIQLATSGDGVEFKWLYALAIDQQAGFVYVTDVSTKYDDRGVQDIIRINDTTGRLIKYDPSTEEVTVLMKGLNIPGGTEVSKDGSFVLVGEFASHRILKYWLKGPKANTSEFLLKVRGPGNIKRTKDGDFWVASSDNNGITVTPRGIRFDEFGNILEVVAIPLPYKGEHIEQVQEHDGALFVGSLFHEFVGILHNYKSSVDHHQEKNSGGLNASFKEFSSF
notes: recombinant from pET30a in E. coli BL21(DE3), Ni resin purified
[12]
  Km: 382 ± 68.1 µM
  Vmax: 0.0377 µmol/min/mg
  kcat: 0.0524 s⁻¹
  kcat/Km: 137 M⁻¹ s⁻¹
